target: recombinant human S1P1 receptor (Homo sapiens, UniProt P21453); experiment: GTPγS assay to determine EC50 values; assay type: biochemical; conditions: 35S-GTPγS binding, membranes of CHO cells expressing recombinant human S1P1 receptor
Method: GTPγS assay to determine EC50 values
GTPγS binding assays are performed in 96 well microtiter plates (Nunc, 442587) in a final volume of 200 μl, using membrane preparations of CHO cells expressing recombinant human S1P1 receptor. Assay conditions are 20 mM Hepes (Fluka, 54461), 100 mM NaCl (Fluka, 71378), 5 mM MgCl2 (Fluka, 63064), 0.1% BSA (Calbiochem, 126609), 1 μM GDP (Sigma, G-7127), 2.5% DMSO (Fluka, 41644), […] ^35S-GTPγS (Amersham Biosciences, SJ1320). The pH is 7.4. Test compounds are dissolved and diluted in 100% DMSO and pre-incubated at room temperature for 30 min in 150 μl of the above assay buffer, in the absence of ^35S-GTPγS. After addition of 50 μl of ^35S-GTPγS, the assay is incubated for 1 h at rt. The assay is terminated by transfer of the reaction mixture to a Multiscreen plate (Millipore, MAHFC1H60) using a cell harvester from Packard Biosciences, and the plates are washed with ice-cold 10 mM Na2HPO4/NaH2PO4 (70%/30%), dried, sealed at the bottom and, after addition of 25 μl MicroScint20 (Packard Biosciences, order#6013621), sealed on the top. Membrane-bound ^35S-GTPγS is measured with a TopCount from Packard Biosciences.
EC50 is the concentration of agonist inducing 50% of the maximal specific ^35S-GTPγS binding. Specific binding is determined by subtracting non-specific binding from maximal binding. Maximal binding is the amount of cpm bound to the Multiscreen plate in the presence of 10 μM of S1P. Non-specific binding is the amount of binding in the absence of an agonist in the assay.

Sequence of recombinant human S1P1 receptor (P21453 whole entry): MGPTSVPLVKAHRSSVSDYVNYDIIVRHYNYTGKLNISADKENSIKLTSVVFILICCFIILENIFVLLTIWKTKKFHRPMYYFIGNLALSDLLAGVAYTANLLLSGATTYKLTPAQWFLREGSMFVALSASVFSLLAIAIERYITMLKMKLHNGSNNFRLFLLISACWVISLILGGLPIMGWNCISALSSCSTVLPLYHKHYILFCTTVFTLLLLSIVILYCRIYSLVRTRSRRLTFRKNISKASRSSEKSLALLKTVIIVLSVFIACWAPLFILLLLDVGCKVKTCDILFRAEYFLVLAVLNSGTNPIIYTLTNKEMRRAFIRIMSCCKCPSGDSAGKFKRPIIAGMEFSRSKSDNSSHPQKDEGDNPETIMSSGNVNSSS

EC50 [nM]	SMILES
> 10000	CCN(CC)c1nc(C)cc(-c2nc(-c3ccc(CC(=O)N4CCC[C@H]4C(=O)O)cc3)no2)n1 [Example 132]

same assay, conditions: 35S-GTPγS binding, membranes of CHO cells expressing recombinant human S1P1 receptor, pH 7.4

SMILES	EC50 [nM]
CCCOc1nc(C)cc(-c2nc(-c3cc(C)c(OCC(O)CNC(=O)CO)c(C)c3)no2)n1 (racemic) [Example 14, rac-N-(3-{4-[5-(6-Methyl-2-propoxy-pyrimidin-4-yl)-[1,2,4]oxadiazol-3-yl]-2,6-dimethyl-phenoxy}-2-hydroxy-propyl)-2-hydroxy-acetamide]	26
Cc1cc(-c2nc(-c3ccc(C(O)CN)cc3)no2)nc(NC(C)C)n1 (racemic) [Example 144, rac-2-Amino-1-{4-[5-(2-isopropylamino-6-methyl-pyrimidin-4-yl)-[1,2,4]oxadiazol-3-yl]-phenyl}-ethanol]	80.3
Cc1cc(-c2nc(-c3ccc(CC(O)CO)cc3)no2)nc(NC(C)C)n1 (racemic) [Example 149, rac-3-{4-[5-(2-Isopropylamino-6-methyl-pyrimidin-4-yl)-[1,2,4]oxadiazol-3-yl]-phenyl}-propane-1,2-diol]	25
COc1cc(-c2noc(-c3cc(C)nc(NC(C)C)n3)n2)cc(C)c1OC[C@@H](O)CO [Example 78, (S)-3-{4-[5-(2-isopropylamino-6-methyl-pyrimidin-4-yl)-[1,2,4]oxadiazol-3-yl]-2-methoxy-6-methyl-phenoxy}-propane-1,2-diol]	5.8
Cc1cc(-c2nc(-c3cc(C)c(OC[C@@H](O)CO)c(Cl)c3)no2)nc(OC(C)C)n1 [Example 81, (S)-3-{2-chloro-4-[5-(2-isopropoxy-6-methyl-pyrimidin-4-yl)-[1,2,4]oxadiazol-3-yl]-6-methyl-phenoxy}-propane-1,2-diol]	7.4
CCc1cc(-c2nnc(-c3cc(C)nc(OC(C)C)n3)o2)cc(C)c1OC[C@@H](O)CNC(=O)CO [Example 89]	39.4
CCc1cc(-c2nnc(-c3cc(C)nc(OCC(C)C)n3)s2)cc(C)c1OC[C@@H](O)CO [Example 99]	3730
CCc1cc(-c2noc(-c3cc(C)nc(N(CC)CC)n3)n2)cc(C)c1OCCNCCO [Example 103]	72.1
CCc1cc(-c2noc(-c3cc(C)nc(N(CC)CC)n3)n2)cc(C)c1OCCN1CCC(C(=O)O)C1 (stereo not shown) [Example 109]	8.4
CCc1cc(-c2noc(-c3cc(C)nc(N(CC)CC)n3)n2)cc(C)c1OCCNC(=O)CN [Example 112]	12.5
CCc1cc(-c2noc(-c3cc(C)nc(N(CC)CC)n3)n2)cc(C)c1OC[C@@H](O)CNS(=O)(=O)CC [Example 117]	22.3
CCN(CC)c1nc(C)cc(-c2nc(-c3ccc(CCNS(C)(=O)=O)cc3)no2)n1 [Example 128, N-(2-{4-[5-(2-Diethylamino-6-methyl-pyrimidin-4-yl)-[1,2,4]oxadiazol-3-yl]-phenyl}-ethyl)-methanesulfonamide]	74.4
CCN(CC)c1nc(C)cc(-c2nc(-c3ccc(CC(=O)N4CC(C(=O)O)C4)cc3)no2)n1 [Example 131]	44.6
CCc1cc(-c2noc(-c3cc(C)nc(NC(C)C)n3)n2)cc(C)c1CCC(=O)NCC(O)CO (stereo not shown) [Example 140]	12.6
Cc1cc(-c2nc(-c3ccc(CC(O)CNCCO)cc3)no2)nc(NC(C)C)n1 (stereo not shown) [Example 154]	331

Further lines, results first:

EC50 [nM]	SMILES
0.46	CCNc1nc(C)cc(-c2nc(-c3cc(C)c(OCC(O)CNC(=O)CO)c(C)c3)no2)n1 (racemic) [Example 4, rac-N-(3-{4-[5-(2-Ethylamino-6-methyl-pyrimidin-4-yl)-[1,2,4]oxadiazol-3-yl]-2,6-dimethyl-phenoxy}-2-hydroxy-propyl)-2-hydroxy-acetamide]
0.88	Cc1cc(-c2nc(-c3cc(C)c(OCC(O)CNC(=O)CO)c(C)c3)no2)nc(NC(C)C)n1 (racemic) [Example 7, rac-N-(3-{4-[5-(2-Isopropylamino-6-methyl-pyrimidin-4-yl)-[1,2,4]oxadiazol-3-yl]-2,6-dimethyl-phenoxy}-2-hydroxy-propyl)-2-hydroxy-acetamide]
2.27	Cc1cc(-c2nc(-c3cc(C)c(OCC(O)CO)c(C)c3)no2)nc(NC(C)C)n1 (racemic) [Example 19, rac-3-{4-[5-(2-Isopropylamino-6-methyl-pyrimidin-4-yl)-[1,2,4]oxadiazol-3-yl]-2,6-dimethyl-phenoxy}-propane-1,2-diol]
1.2	CCc1cc(-c2noc(-c3cc(C)nc(NCC(C)C)n3)n2)cc(C)c1OC[C@@H](O)CNC(=O)CO [Example 2, N—((S)-3-{2-Ethyl-4-[5-(2-isobutylamino-6-methyl-pyrimidin-4-yl)-[1,2,4]oxadiazol-3-yl]-6-methyl-phenoxy}-2-hydroxy-propyl)-2-hydroxy-acetamide]
0.17	CCc1cc(-c2noc(-c3cc(C)nc(NC4CC4)n3)n2)cc(C)c1OC[C@@H](O)CNC(=O)CO [Example 31, N—((S)-3-{4-[5-(2-cyclopropylamino-6-methyl-pyrimidin-4-yl)-[1,2,4]oxadiazol-3-yl]-2-ethyl-6-methyl-phenoxy}-2-hydroxy-propyl)-2-hydroxy-acetamide]
1.37	CCc1cc(-c2noc(-c3cc(CC(C)C)nc(NC)n3)n2)cc(C)c1OC[C@@H](O)CNC(=O)CO [Example 35, N—((S)-3-{2-ethyl-4-[5-(6-isobutyl-2-methylamino-pyrimidin-4-yl)-[1,2,4]oxadiazol-3-yl]-6-methyl-phenoxy}-2-hydroxy-propyl)-2-hydroxy-acetamide]
4.5	CCOc1nc(CC)cc(-c2nc(-c3cc(C)c(OC[C@@H](O)CNC(=O)CO)c(CC)c3)no2)n1 [Example 41, N—((S)-3-{4-[5-(2-ethoxy-6-ethyl-pyrimidin-4-yl)-[1,2,4]oxadiazol-3-yl]-2-ethyl-6-methyl-phenoxy}-2-hydroxy-propyl)-2-hydroxy-acetamide]
0.97	CCc1cc(-c2noc(-c3cc(CC(C)C)nc(OC)n3)n2)cc(C)c1OC[C@@H](O)CNC(=O)CO [Example 43, N—((S)-3-{2-ethyl-4-[5-(6-isobutyl-2-methoxy-pyrimidin-4-yl)-[1,2,4]oxadiazol-3-yl]-6-methyl-phenoxy}-2-hydroxy-propyl)-2-hydroxy-acetamide]
3.7	Cc1cc(-c2nc(-c3cc(C)c(OC[C@@H](O)CNC(=O)CO)c(C)c3)no2)nc(OCC(C)C)n1 [Example 46]
1	Cc1cc(-c2nc(-c3cc(C)c(OC[C@@H](O)CNC(=O)CO)c(Cl)c3)no2)nc(OC(C)C)n1 [Example 54, N—((S)-3-{2-chloro-4-[5-(2-isopropoxy-6-methyl-pyrimidin-4-yl)-[1,2,4]oxadiazol-3-yl]-6-methyl-phenoxy}-2-hydroxy-propyl)-2-hydroxy-acetamide]
0.25	CCc1cc(-c2noc(-c3cc(C)nc(NC4CC4)n3)n2)cc(C)c1OC[C@@H](O)CO [Example 63, (S)-3-{4-[5-(2-cyclopropylamino-6-methyl-pyrimidin-4-yl)-[1,2,4]oxadiazol-3-yl]-2-ethyl-6-methyl-phenoxy}-propane-1,2-diol]
5.7	CCc1cc(-c2nc(-c3cc(C)nc(N(C)CC(C)C)n3)no2)cc(C)c1OC[C@@H](O)CNC(=O)CO [Example 86, (S)—N-[3-(2-Ethyl-4-{3-[2-(isobutyl-methyl-amino)-6-methyl-pyrimidin-4-yl]-[1,2,4]oxadiazol-5-yl}-6-methyl-phenoxy)-2-hydroxy-propyl]-2-hydroxy-acetamide]
5.1	CCc1cc(-c2noc(-c3cc(C)nc(N(CC)CC)n3)n2)cc(C)c1OC(CO)CO [Example 100, 2-{4-[5-(2-Diethylamino-6-methyl-pyrimidin-4-yl)-[1,2,4]oxadiazol-3-yl]-2-ethyl-6-methyl-phenoxy}-propane-1,3-diol]
1.4	CCc1cc(-c2noc(-c3cc(C)nc(N(CC)CC)n3)n2)cc(C)c1OC[C@@H](O)CNCCC(=O)O [Example 126, 3-((S)-3-{4-[5-(2-diethylamino-6-methyl-pyrimidin-4-yl)-[1,2,4]oxadiazol-3-yl]-2-ethyl-6-methyl-phenoxy}-2-hydroxy-propylamino)-propionic acid]
2	CCc1cc(-c2noc(-c3cc(C)nc(NC(C)C)n3)n2)cc(C)c1CCC(=O)NCCC(=O)O [Example 134]
